Here are results for 4 compounds from patent US20130065866A1, “DENTINAL DRUG DELIVERY COMPOSITION AND SCREENING METHOD” (UNIVERSITY OF MEDICINE AND DENTISTRY OF NEW JERSEY, priority 2009, published 2013).

Structures are written as SMILES.

Format in all cases: cell-based, murine
The test system of data set [1] is LPS-evoked NO production in RAW cells. The data set is described as follows: Direct effect on NO production in RAW cells. As to conditions: for reduction of spontaneous NO production: absence of LPS stimulation; for inhibition of LPS-evoked NO production: direct treatment. An excerpt: (§1) After the one or more time intervals (e.g., one or more minutes, hours, or days), the diffusate is collected and tested for activity against an isolated dental pulp cell or isolated population of dental pulp cells. An isolated pulpal cell or population of dental pulp cells refers to cells that are removed from their native environment (i.e., the dental pulp). The isolated cells can be cultured primary cells or cultured cell line and include, but are not limited to fibroblasts, odontoblasts, histiocytes, macrophage, granulocytes, mast cells or plasma cells. Exemplary cell lines include, but are not limited to the murine macrophage cell line, RAW 264.7; immortalized mouse odontoblast cell line, MDPC-23; and the murine fibroblast cell line, 3T3.
(§2) As indicated, in some embodiments it is determined whether the diffusate contains a sufficient amount of test agent to inhibit or decrease the expression or activity of at least one inflammatory mediator of the dental pulp cell. In accordance with this embodiment, the isolated pulpal cell or population of dental pulp cells can be challenged with an inflammation-provoking stimulus (e.g., Lipopolysaccharide (LPS), N-formyl-methionyl-leucyl-phenylalanine, or phorbol myristate acetate) either before or after being contacted with the diffusate, so that the effect of the drug diffusing through the dentin barrier on inflammatory mediator production is assessed.
(§3) Prostaglandins such as PGE2 and nitric oxide (NO) are inflammatory mediators that are generated in injured tissue and influence vascular tissues, nociceptive nerve endings and immune cells. For example, exposure of immune and other cells to bacterial toxins such as LPS evokes production of PGE2 and NO. Other known mediators of inflammation include, but are not limited to, bradykinin, histamine, leukotrienes (Bd, Cd, Dd, Ed) IL-8, and neutrophil and macrophage lysosomal enzymes. The effect of test agents on the expression or activity of one or more of the above-referenced inflammatory mediators can be determined by conventional methods. For example, mRNA expression can be determined by dot blot, northern blot, or reverse transcriptase (RT)-PCR; protein expression can be determined by western blot or ELISA analysis; and NO production can be determined using a Griess reaction assay (e.g., EMSNOTOT kit) or ozone-based chemiluminescence assay.
The direct effect of drugs and lipids on inflammatory mediator production in RAW cells was determined. […] Measurable amounts of NO were produced in the absence of LPS stimulation (˜15 μM).

The test system of data set [2] is PGE2 production in LPS-stimulated RAW cells. Put plainly: Transdentinal diffusion; diffusate applied to LPS-stimulated RAW cells, PGE2. As to conditions: 24 hours of diffusion through dentin; diffusate on RAW cells stimulated with LPS. As to the method:
(§4) This screening method of the invention includes the steps of contacting a coronal surface of an isolated dentin sample with a test agent, incubating the test agent and dentin sample so that diffusate is formed on the pulpal side of the dentin sample, contacting an isolated dental pulp cell with the diffusate, and determining whether the diffusate contains a sufficient amount of test agent to act on a cell of the dental pulp. In one embodiment, it is determined whether the diffusate contains a sufficient amount of test agent to inhibit or decrease the expression or activity of at least one inflammatory mediator of the dental pulp cell (e.g., nociceptive nerve endings, blood vesicle cells or inflammatory cells).
(§5) The dentins sample can be isolated by conventional methods and used in combination with a commercially available two-chamber diffusion cell, wherein the partition separating the two chambers holds the dentin sample (e.g., a dentin disk) in an orientation so that the dentin tubules provide the only connection between the two chambers. See, e.g., Hanks, et al. (1993) J. Dent. Res. 72:931-938; and Puapichartdumrong, et al. (2003) Internatl. Endodont. J. 36:674-81. […]

Data set [3] has as its system LPS-evoked NO production in RAW cells. Put plainly: Transdentinal diffusion; diffusate applied to LPS-stimulated RAW cells, NO. As to conditions: 24 hours of diffusion through dentin; diffusate on RAW cells stimulated with LPS. On the procedure: as §4, §5
Data set [4] concerns RAW cells. Put plainly: Toxicity to cells in the RAW cell study. The settings on record: levels used in this study. As to the method:
The direct effect of drugs and lipids on inflammatory mediator production in RAW cells was determined.

Data set [5] has as its system LPS-evoked PGE2 production in RAW cells. Put plainly: Direct effect on LPS-evoked PGE2 production in RAW cells. As to conditions: direct treatment.
Description: as §1, §2
as §3, with “For example, exposure of immune and other cells to bacterial toxins such as LPS evokes production of PGE2 and NO. Other known mediators of inflammation include, but are not limited to, bradykinin, histamine, leukotrienes (Bd, Cd, Dd, Ed) IL-8, and neutrophil and macrophage lysosomal enzymes.” left out, “assay. […]” for “assay.”

For the compound `CC/C=C\C/C=C\C/C=C\C/C=C\C/C=C\C/C=C\CCC(=O)O` [DHA, docosahexaenoic], in data set [1], the “reduction of spontaneous NO production” value is listed as “small (not statistically significant) reduction” and the “inhibition of LPS-evoked NO production” value was “inhibited NO production but to a lesser extent than aspirin”.
Regarding `CC(=O)Oc1ccccc1C(=O)O` [aspirin, acetylsalicyclic acid], in data set [2], the “PGE2 production after diffusate application” value is “significantly reduced”. The “LPS-evoked NO production after diffusate application” value in data set [3] is given as “depressed”. Besides, the “reduction of LPS-evoked NO production” value in data set [1] (0.5 mM and lower (0.05, 0.005, 0.0005 mM)) was “did not significantly reduce LPS-evoked NO production”. Also, the “reduction of LPS-evoked NO production” value in data set [1] (5 mM) was “significantly reduced NO production”. For the same compound, in data set [1], the “reduction of spontaneous NO production” value was “small (not statistically significant) reduction” and the “inhibition of LPS-evoked NO production” value is given as “effectively inhibited LPS-evoked NO production”. For the same compound, the toxicity to cells result in data set [4] was “non-toxic to cells”. The “inhibition of LPS-evoked PGE2 production” value in data set [5] (compared to oleic acid) is “effective inhibitors of LPS-evoked PGE2 production”.
Regarding `CC(C)Cc1ccc(C(C)C(=O)O)cc1` (centres unmarked) [ibuprofen], the “PGE2 production after diffusate application” value in data set [2] was “significantly reduced”. Moreover, the “LPS-evoked NO production after diffusate application” value in data set [3] is listed as “did not attenuate LPS-stimulated NO production”. The “effect on LPS-evoked NO production” value in data set [1] (50 μM) was “no effect on LPS-evoked NO production”. Also, the “inhibition of LPS-evoked NO production” value in data set [1] is recorded as “did suppress NO production”. For the same compound, the “inhibition of LPS-evoked PGE2 production” value in data set [5] (50 μM) is given as “inhibited LPS-evoked PGE2 production”; in data set [5] (compared to oleic acid) it was “effective inhibitors of LPS-evoked PGE2 production”.
Turning to `CCCCCCCC/C=C\CCCCCCCC(=O)O` [oleic acid], the “inhibition of LPS-evoked NO production” value in data set [1] is “not shared”.
